The target in one assay is T1, Recombinant human renin (Homo sapiens, UniProt P00797).
T1 construct: with trypsin, and isolate the active form (residues 67-406); made in house; host or cells: FreeStyle 293-F cells (transient expression of pcDNA3.1(+)/hREN)
T1 sequence (P00797 67-406): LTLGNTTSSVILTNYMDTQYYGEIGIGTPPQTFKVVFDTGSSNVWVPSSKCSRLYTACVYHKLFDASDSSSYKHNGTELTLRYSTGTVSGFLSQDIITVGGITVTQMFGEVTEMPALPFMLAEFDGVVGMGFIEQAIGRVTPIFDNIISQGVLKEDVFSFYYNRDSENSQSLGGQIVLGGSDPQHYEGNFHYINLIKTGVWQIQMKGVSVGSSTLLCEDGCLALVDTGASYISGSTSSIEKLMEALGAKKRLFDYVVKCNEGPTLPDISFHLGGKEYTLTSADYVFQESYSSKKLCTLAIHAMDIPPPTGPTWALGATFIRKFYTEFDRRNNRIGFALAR
The assay can be described thus: in vitro enzymatic activity of renin inhibitors (fluorescence). The note with it: fluorogenic peptide substrate. The format is biochemical. An excerpt: Test compounds in varying concentrations may be reacted with recombinant human renin in the presence of substrate, e.g., QXL520-γ-Abu-Ile-His-Pro-Phe-His-Leu-Val-Ile-His-Thr-Lys (HiLyteFluo488)-Arg-OH (Anaspec, San Jose, Calif.). The reaction can be followed kinetically using fluorescence (excitation λ=485 nm; emission λ=538 nm). Inhibition constants (IC50) may be calculated by non-linear curve fitting of the compound concentrations and fluorescence intensities to the standard IC50 equation.
Solutions of test compounds in varying concentrations (≦2 mM final concentration) are prepared in dimethyl sulfoxide (DMSO) and then diluted into assay buffer comprising 50 mM Hepes, 1 mM EDTA, 1 mM DTT, 0.1 mg/ml BSA, 0.01% Brij35, pH 7.4. Alternatively, the assay can be performed with a high BSA concentration, wherein the buffer contains an additional 2% BSA.
Recombinant human renin (3 nM final concentration) is added to the dilutions and pre-incubated with the compounds for 10 minutes at 37° C. As described in Examples A-C above, human renin can be obtained by expressing preprorenin (residue 1-406) in mammalian cells, treating the prorenin (residues 24-406) contained in the culture supernatant with trypsin, and isolate the active form (residues 67-406). After pre-incubation, the reaction is initiated with 1 μM of substrate QXL520-γ-Abu-Ile-His-Pro-Phe-His-Leu-Val-Ile-His-Thr-Lys (HiLyteFluo488)-Arg-OH (Anaspec, San Jose, Calif.). The final DMSO in the assay is 5%. The total volume of the reaction mixture is 20 μL, which can be placed on Greiner 384-well small volume plates.
Renin activity may be determined via fluorescence (excitation λ=485 nm; emission λ=538 nm), e.g., on a Molecular Devices SPECTROmax GEMINI XPS. The fluorescence intensity is determined upon the addition of substrate and determined again after incubation at 37° C. for one hour. The fluorescence intensity of a blank (no inhibition) using vehicle alone is also determined. Renin activity is linearly proportional to the change in fluorescence observed (final—initial).
The percent inhibition of renin at a given compound concentration is defined as: 100%×[1−(Fcompound/Fblank)] where Fcompound is the observed fluorescence at a given concentration of test compound and Fblank is the observed fluorescence in the presence of vehicle alone.
The pIC50 value (negative log of the molar concentration of the compound that produces 50% inhibition) of a test compound is calculated by non-linear least squares curve fitting of the equation: Percent Inhibition=100%/(1+(10−pIC50/10 log [I])) to percent inhibition versus compound concentration. The 50% inhibitory concentration (IC50) of a test compound is calculated by raising 10 to the negative pIC50 (10-pIC50).

A further assay concerns the target Human DPP-IV (Homo sapiens, UniProt P27487). The assay can be described thus: in vitro enzymatic activity of inhibitors against DPP-IV. The format is biochemical. As to conditions: AP-AFC substrate. As for the experimental part: Solutions of test compounds in varying concentrations ([…]) were prepared in dimethyl sulfoxide (DMSO) and then diluted into assay buffer comprising: 20 mM Tris, pH 7.4; 20 mM KCl; and 0.1 mg/mL BSA. Human DPP-IV (0.1 nM final concentration) was added to the dilutions and pre-incubated for 10 minutes at ambient temperature before the reaction was initiated with A-P-7-amido-4-trifluoromethylcoumarin (AP-AFC; 10 μM final concentration). The total volume of the reaction mixture was 10-100 μL depending on assay formats used (384 or 96 well plates). The reaction was followed kinetically (excitation λ=400 nm; emission λ=505 nm) for 5-10 minutes or an end-point was measured after 10 minutes. Inhibition constants (IC50) were calculated from the enzyme progress curves using standard mathematical models.

Human DPP-IV, sequence (P27487 whole entry): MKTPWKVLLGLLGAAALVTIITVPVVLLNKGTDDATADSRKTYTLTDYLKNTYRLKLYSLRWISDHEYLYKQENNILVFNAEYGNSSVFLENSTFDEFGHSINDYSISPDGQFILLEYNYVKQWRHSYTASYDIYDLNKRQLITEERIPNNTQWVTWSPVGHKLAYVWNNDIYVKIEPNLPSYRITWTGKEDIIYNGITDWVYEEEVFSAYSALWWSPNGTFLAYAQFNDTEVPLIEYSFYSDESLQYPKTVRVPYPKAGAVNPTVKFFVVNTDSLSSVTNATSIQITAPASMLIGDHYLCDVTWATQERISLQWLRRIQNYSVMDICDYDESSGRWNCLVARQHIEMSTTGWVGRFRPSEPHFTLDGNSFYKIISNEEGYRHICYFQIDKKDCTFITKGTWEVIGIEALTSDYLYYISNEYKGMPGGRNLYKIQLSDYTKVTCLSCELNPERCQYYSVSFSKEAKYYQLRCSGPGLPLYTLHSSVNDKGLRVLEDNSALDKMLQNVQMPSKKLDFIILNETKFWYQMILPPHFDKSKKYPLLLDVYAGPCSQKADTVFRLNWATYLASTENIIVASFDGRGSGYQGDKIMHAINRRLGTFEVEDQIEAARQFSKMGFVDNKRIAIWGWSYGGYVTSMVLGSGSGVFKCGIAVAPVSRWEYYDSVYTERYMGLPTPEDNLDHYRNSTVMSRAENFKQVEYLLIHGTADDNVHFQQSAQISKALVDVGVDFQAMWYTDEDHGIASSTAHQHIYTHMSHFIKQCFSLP

For orientation: IC50 means the concentration needed to halve the response being measured. In the case of `CC(C)COc1cccc(-c2c(CN)c(N)nc3c2c(=O)n(C)c(=O)n3C)c1` [Compound 76, 7-amino-6-(aminomethyl)-5-(3-isobutoxyphenyl)-1,3-dimethylpyrido[2,3-d]pyrimidine-2,4(1H,3H)-dione], the IC50 on Recombinant human renin was more than 100 µM; against Human DPP-IV, 10 to 100 µM.
On the same counts, the results for `CC(C)COc1ccccc1-c1c(CN)c(NCc2ccc3ccccc3c2)nc2c1c(=O)n(C)c(=O)n2C` [Compound 77, 6-(aminomethyl)-5-(2-isobutoxyphenyl)-1,3-dimethyl-7-(naphthalen-2-ylmethylamino)pyrido[2,3-d]pyrimidine-2,4(1H,3H)-dione] are 1 to 10 µM and more than 100 µM.
On the same counts, the results for `Cn1c(=O)c2c(-c3cccc(OCc4cncs4)c3)c(CN)c(NCc3ccc4ccccc4c3)nc2n(C)c1=O` [Compound 79, 6-(aminomethyl)-1,3-dimethyl-7-(naphthalen-2-ylmethylamino)-5-(3-(thiazol-5-ylmethoxy)phenyl)pyrido[2,3-d]pyrimidine-2,4(1H,3H)-dione] are 1 to 10 µM and 10 to 100 µM.
On the same counts, the results for `Cn1c(=O)c2c(-c3cccc(O)c3)c(CN)c(NCc3ccc4ccccc4c3)nc2n(C)c1=O` [Compound 80, 6-(aminomethyl)-5-(3-hydroxyphenyl)-1,3-dimethyl-7-(naphthalen-2-ylmethylamino)pyrido[2,3-d]pyrimidine-2,4(1H,3H)-dione] are 1 to 10 µM and 10 to 100 µM.
As for `COc1ccc(F)cc1-c1c(CN)c(NCc2cccc(OCc3ccccc3)c2)nc2c1c(=O)n(C)c(=O)n2C` [Compound 82, 6-(aminomethyl)-7-(3-(benzyloxy)benzylamino)-5-(5-fluoro-2-methoxyphenyl)-1,3-dimethylpyrido[2,3-d]pyrimidine-2,4(1H,3H)-dione], the IC50 at Recombinant human renin is 1 to 10 µM; on Human DPP-IV, less than 1 µM.
`COc1ccc(F)cc1-c1c(CN)c(NCc2cccc(OCC(C)C)c2)nc2c1c(=O)n(C)c(=O)n2C` [Compound 83, 6-(aminomethyl)-5-(5-fluoro-2-methoxyphenyl)-7-(3-isobutoxybenzylamino)-1,3-dimethylpyrido[2,3-d]pyrimidine-2,4(1H,3H)-dione]: the IC50 was 1 to 10 µM on Recombinant human renin and less than 1 µM against Human DPP-IV.
On the same counts, the results for `CCCOc1ccc(OCCC)c(CNc2nc3c(c(-c4ccc(Cl)cc4Cl)c2CN)c(=O)n(C)c(=O)n3C)c1` [Compound 84, 6-(aminomethyl)-5-(2,4-dichlorophenyl)-7-(2,5-dipropoxybenzylamino)-1,3-dimethylpyrido[2,3-d]pyrimidine-2,4(1H,3H)-dione] are more than 100 µM and 1 to 10 µM.
On the same counts, the results for `COc1cc(OC)cc(-c2c(CN)c(NCc3cccc(-n4cccc4)c3)nc3c2c(=O)n(C)c(=O)n3C)c1` [Compound 85, 7-(3-(1H-pyrrol-1-yl)benzylamino)-6-(aminomethyl)-5-(3,5-dimethoxyphenyl)-1,3-dimethylpyrido[2,3-d]pyrimidine-2,4(1H,3H)-dione] are 1 to 10 µM and more than 100 µM.
The matching figures for `CCNCc1c(NCc2ccc3ccccc3c2)nc2c(c1-c1cc(OC)cc(OC)c1)c(=O)n(C)c(=O)n2C` [Compound 86, 5-(3,5-dimethoxyphenyl)-6-((ethylamino)methyl)-1,3-dimethyl-7-(naphthalen-2-ylmethylamino)pyrido[2,3-d]pyrimidine-2,4(1H,3H)-dione]: 10 to 100 µM and more than 100 µM.
As for `COc1ccc(F)cc1-c1c(CN)c(NCc2ccccc2C(F)(F)F)nc2c1c(=O)n(C)c(=O)n2C` [Compound 87, 6-(Aminomethyl)-5-(5-fluoro-2-methoxyphenyl)-1,3-dimethyl-7-(2-(trifluoromethyl)benzylamino)pyrido[2,3-d]pyrimidine-2,4(1H,3H)-dione], the IC50 at Recombinant human renin was 1 to 10 µM; at Human DPP-IV, less than 1 µM.
The matching figures for `CC(C)COc1ccc(Cl)cc1-c1c(CN)c(NCc2ccc3ccccc3c2)nc2c1c(=O)n(C)c(=O)n2C` [Compound 88, 6-(Aminomethyl)-5-(5-chloro-2-isobutoxyphenyl)-1,3-dimethyl-7-(naphthalen-2-ylmethylamino)pyrido[2,3-d]pyrimidine-2,4(1H,3H)-dione]: 1 to 10 µM and 1 to 10 µM.
Take `Cn1c(=O)c2c(-c3cccc(OCc4cnc(Cl)s4)c3)c(CN)c(NCc3ccc4ccccc4c3)nc2n(C)c1=O` [Compound 89, 6-(Aminomethyl)-5-(3-((2-chlorothiazol-5-yl)methoxy)phenyl)-1,3-dimethyl-7-(naphthalen-2-ylmethylamino)pyrido[2,3-d]pyrimidine-2,4(1H,3H)-dione]: the IC50 at Recombinant human renin lay in the range of 1 to 10 µM; on Human DPP-IV, 10 to 100 µM.
On the same counts, the results for `Cn1c(=O)c2c(-c3cccc(F)c3)c(CN)c(NCc3ccc4ccccc4c3)nc2n(C)c1=O` [Compound 90, 6-(Aminomethyl)-5-(3-fluorophenyl)-1,3-dimethyl-7-(naphthalen-2-ylmethylamino)pyrido[2,3-d]pyrimidine-2,4(1H,3H)-dione] are 1 to 10 µM and 1 to 10 µM.
On the same counts, the results for `Cn1c(=O)c2c(-c3cc(F)ccc3Br)c(CN)c(NC(Cc3ccccc3)c3ccccc3)nc2n(C)c1=O` (stereo not drawn) [Compound 91, 6-(Aminomethyl)-5-(2-bromo-5-fluorophenyl)-7-(1,2-diphenylethylamino)-1,3-dimethylpyrido[2,3-d]pyrimidine-2,4(1H,3H)-dione] are 1 to 10 µM and less than 1 µM.
The matching figures for `COc1ccc(F)cc1-c1c(CN)c(NCCc2ccccc2)nc2c1c(=O)n(C)c(=O)n2C` [Compound 93, 6-(Aminomethyl)-5-(5-fluoro-2-methoxyphenyl)-1,3-dimethyl-7-(phenethylamino)pyrido[2,3-d]pyrimidine-2,4(1H,3H)-dione]: 10 to 100 µM and less than 1 µM.

Source of the values: patent publication US8133898B2, “Renin inhibitors” (Takeda Pharmaceutical Company Limited, priority 2008, dated 2012).
